Measured values published in ChEMBL document CHEMBL1938343, “Lead optimisation of selective non-zinc binding inhibitors of MMP13. Part 2” (Bioorg Med Chem Lett, 2012).

Legend:
[1] = Volume of distribution at steady state in dog at 1 mg/kg, iv and 1 mg/kg, po; type: ADME, organism-based, Canis lupus familiaris; settings: in vivo, read-out: Vdss
[2] = Oral bioavailability in dog; type: ADME, organism-based, Canis lupus familiaris; settings: in vivo
[3] = Fraction unbound in human; type: ADME, organism-based; settings: in vivo
Collagenase 3 = Collagenase 3 (Homo sapiens, UniProt P45452); experiment: Inhibition of recombinant human MMP13 using Mca-Pro-cyclohexyl-Ala-Gly-Nva-His-Ala- Dap(Dnp)-NH2 as substrate by fluorometric analysis; settings: read-out: IC50
[4] = Clearance in dog at 1 mg/kg, iv and 1 mg/kg, po; type: ADME, organism-based, Canis lupus familiaris; settings: in vivo
[5] = Intrinsic clearance in human microsomes; type: ADME, Microsome
[6] = Renal elimination in rat at 2 mg/kg, iv; type: ADME, organism-based; set-up: dose 2 mg/kg, route intravenous; settings: urine, read-out: Ae
[7] = Intrinsic clearance in human hepatocytes assessed per 10^6 cells; type: ADME, cell-based, Hepatocyte; settings: read-out: CLH
[8] = Intrinsic clearance in Sprague-Dawley rat hepatocytes assessed per 10^6 cells; type: ADME, cell-based, Hepatocyte; settings: Sprague-Dawley, read-out: CLH
[9] = target: 72 kDa type IV collagenase (Homo sapiens, UniProt P08253); experiment: Inhibition of MMP2 using Mca-Pro-cyclohexyl-Ala-Gly-Nva-His-Ala- Dap(Dnp)-NH2 as substrate by fluorometric analysis; settings: read-out: IC50
[10] = target: Macrophage metalloelastase (Homo sapiens, UniProt P39900); experiment: Inhibition of MMP12 using Mca-Pro-cyclohexyl-Ala-Gly-Nva-His-Ala- Dap(Dnp)-NH2 as substrate by fluorometric analysis
[11] = target: T1, A disintegrin and metalloproteinase with thrombospondin motifs 5 (Homo sapiens) (UniProt Q9UNA0); experiment: Inhibition of ADAM-TS5 using dimethoxyfluorescein-Ser-Pro-Leu-Ala-Gln-Ala- Val-Arg-ser-Ser-Arg-Cys-fluorescein as substrate
T1 sequence (whole entry): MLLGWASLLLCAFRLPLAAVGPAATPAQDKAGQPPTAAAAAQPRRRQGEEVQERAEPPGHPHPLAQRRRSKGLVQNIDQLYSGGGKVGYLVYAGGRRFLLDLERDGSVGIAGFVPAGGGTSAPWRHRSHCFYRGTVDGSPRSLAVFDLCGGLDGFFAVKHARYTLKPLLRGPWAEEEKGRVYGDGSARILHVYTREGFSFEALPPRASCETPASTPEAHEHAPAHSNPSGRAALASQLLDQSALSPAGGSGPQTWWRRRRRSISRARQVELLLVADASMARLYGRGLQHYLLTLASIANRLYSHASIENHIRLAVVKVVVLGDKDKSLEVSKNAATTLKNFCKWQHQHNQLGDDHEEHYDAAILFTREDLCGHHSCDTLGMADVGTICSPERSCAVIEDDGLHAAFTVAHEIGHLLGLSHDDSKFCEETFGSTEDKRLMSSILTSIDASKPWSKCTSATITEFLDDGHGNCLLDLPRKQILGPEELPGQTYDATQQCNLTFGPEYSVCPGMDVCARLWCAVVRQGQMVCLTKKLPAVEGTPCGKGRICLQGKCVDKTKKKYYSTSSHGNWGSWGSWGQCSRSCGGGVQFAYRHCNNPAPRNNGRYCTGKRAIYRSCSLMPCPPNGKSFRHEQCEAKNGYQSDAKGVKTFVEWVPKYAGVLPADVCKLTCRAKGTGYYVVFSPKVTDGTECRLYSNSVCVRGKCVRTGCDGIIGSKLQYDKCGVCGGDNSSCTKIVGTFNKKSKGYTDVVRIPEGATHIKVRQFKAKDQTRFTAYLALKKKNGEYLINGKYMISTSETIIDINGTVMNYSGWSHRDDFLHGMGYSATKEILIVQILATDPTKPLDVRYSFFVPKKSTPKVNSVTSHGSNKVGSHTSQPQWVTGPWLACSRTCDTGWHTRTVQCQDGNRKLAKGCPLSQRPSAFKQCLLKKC

[12] = Apparent permeability across basolateral to apical side in human Caco2 cells at 10 uM; type: ADME, cell-based; settings: Caco-2
[13] = Thermodynamic solubility of the compound; settings: Therm_solubility
[14] = Cytotoxicity in mouse spleen macrophages assessed as phospholipidosis; settings: Macrophage
[15] = Fraction unbound in rat; type: ADME, organism-based; settings: in vivo
[16] = target: T2, A disintegrin and metalloproteinase with thrombospondin motifs 4 (Homo sapiens) (UniProt O75173); experiment: Inhibition of ADAM-TS4 using dimethoxyfluorescein-Ser-Pro-Leu-Ala-Gln-Ala- Val-Arg-ser-Ser-Arg-Cys-fluorescein as substrate
T2 sequence (whole entry): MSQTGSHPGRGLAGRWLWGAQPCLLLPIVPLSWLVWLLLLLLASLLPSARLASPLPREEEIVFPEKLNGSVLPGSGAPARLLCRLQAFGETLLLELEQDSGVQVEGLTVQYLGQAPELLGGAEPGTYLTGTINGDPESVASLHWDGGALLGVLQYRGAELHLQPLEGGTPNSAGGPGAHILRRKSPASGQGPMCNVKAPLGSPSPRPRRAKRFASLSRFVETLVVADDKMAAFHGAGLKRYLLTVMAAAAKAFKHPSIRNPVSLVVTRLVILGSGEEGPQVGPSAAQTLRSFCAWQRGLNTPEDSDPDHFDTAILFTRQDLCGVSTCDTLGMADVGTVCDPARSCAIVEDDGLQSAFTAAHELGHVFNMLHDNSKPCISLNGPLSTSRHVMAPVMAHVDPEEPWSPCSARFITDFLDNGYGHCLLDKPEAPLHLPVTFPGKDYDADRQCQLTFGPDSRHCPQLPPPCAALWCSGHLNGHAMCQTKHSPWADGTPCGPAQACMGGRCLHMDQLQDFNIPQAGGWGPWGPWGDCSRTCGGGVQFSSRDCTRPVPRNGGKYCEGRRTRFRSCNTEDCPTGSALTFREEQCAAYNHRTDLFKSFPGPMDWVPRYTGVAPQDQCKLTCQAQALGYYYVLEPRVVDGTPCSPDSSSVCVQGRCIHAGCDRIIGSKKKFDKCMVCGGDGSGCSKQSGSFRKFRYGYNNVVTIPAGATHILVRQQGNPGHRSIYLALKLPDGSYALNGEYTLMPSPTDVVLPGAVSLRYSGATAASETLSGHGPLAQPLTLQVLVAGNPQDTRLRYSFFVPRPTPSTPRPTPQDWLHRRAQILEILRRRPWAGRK

[17] = target: Matrix metalloproteinase-9 (Homo sapiens, UniProt P14780); experiment: Inhibition of MMP9 using Mca-Pro-cyclohexyl-Ala-Gly-Nva-His-Ala- Dap(Dnp)-NH2 as substrate by fluorometric analysis
[18] = Oral bioavailability in rat; type: ADME, organism-based; settings: in vivo
[19] = Half life in rat at 2 mg/kg, iv; type: ADME, organism-based; set-up: dose 2 mg/kg, route intravenous; settings: in vivo
[20] = target: Matrix metalloproteinase-14 (Homo sapiens, UniProt P50281); experiment: Inhibition of MMP14 using Mca-Pro-cyclohexyl-Ala-Gly-Nva-His-Ala- Dap(Dnp)-NH2 as substrate by fluorometric analysis
[21] = Clearance in rat at 2 mg/kg, iv; type: ADME, organism-based; set-up: dose 2 mg/kg, route intravenous; settings: in vivo

Macrophage metalloelastase, sequence (P39900 whole entry): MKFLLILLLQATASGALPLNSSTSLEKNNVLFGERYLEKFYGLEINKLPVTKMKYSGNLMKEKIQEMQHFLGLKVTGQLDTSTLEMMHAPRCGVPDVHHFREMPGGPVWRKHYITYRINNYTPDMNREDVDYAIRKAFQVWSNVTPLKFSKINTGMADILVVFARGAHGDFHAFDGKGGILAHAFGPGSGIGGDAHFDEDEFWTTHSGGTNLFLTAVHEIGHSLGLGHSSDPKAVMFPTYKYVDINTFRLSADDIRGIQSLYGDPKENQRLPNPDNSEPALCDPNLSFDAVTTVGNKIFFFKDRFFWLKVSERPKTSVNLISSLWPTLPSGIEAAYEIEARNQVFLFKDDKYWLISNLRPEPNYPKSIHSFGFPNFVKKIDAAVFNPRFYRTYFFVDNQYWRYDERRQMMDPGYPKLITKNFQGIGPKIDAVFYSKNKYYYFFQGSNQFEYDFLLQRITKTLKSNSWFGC
Matrix metalloproteinase-9, sequence (P14780 whole entry): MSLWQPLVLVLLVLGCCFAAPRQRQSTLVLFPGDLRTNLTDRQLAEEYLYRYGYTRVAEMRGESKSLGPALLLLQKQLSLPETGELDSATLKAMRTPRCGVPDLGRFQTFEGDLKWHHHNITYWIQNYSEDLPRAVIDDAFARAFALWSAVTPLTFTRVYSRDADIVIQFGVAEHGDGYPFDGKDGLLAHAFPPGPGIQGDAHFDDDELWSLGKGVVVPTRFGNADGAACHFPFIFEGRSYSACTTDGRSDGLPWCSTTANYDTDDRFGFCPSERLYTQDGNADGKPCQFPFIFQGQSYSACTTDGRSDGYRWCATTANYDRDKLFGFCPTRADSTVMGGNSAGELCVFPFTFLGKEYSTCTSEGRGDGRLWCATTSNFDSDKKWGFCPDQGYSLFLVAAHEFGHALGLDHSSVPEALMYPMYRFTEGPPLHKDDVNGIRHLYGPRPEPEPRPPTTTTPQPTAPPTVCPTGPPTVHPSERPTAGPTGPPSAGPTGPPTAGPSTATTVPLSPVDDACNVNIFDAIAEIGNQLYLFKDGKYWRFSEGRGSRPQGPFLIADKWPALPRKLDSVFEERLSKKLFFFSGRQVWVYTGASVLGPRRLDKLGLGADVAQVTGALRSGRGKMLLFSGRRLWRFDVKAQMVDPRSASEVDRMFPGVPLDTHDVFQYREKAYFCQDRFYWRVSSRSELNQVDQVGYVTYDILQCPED
72 kDa type IV collagenase, sequence (P08253 whole entry): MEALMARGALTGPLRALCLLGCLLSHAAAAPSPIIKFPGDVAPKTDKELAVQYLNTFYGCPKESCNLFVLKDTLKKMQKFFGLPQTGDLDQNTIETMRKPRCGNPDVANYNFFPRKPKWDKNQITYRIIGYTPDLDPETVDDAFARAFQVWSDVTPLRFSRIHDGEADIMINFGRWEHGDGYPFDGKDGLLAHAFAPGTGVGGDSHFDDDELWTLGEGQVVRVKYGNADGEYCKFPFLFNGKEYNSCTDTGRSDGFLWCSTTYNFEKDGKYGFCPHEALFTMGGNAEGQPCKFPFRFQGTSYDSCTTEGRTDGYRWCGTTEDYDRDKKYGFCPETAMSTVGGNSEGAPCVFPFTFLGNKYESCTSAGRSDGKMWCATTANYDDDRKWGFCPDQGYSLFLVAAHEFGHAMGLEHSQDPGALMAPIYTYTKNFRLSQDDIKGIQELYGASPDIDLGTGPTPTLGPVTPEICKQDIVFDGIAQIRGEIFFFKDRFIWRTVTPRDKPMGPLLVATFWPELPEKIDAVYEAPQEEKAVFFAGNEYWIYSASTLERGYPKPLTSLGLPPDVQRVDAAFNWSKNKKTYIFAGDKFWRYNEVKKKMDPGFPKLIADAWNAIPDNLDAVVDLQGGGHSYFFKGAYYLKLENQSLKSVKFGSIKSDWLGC

In the case of `CN1CCC(NC(=O)c2ccc(Oc3ccc(C#C[C@]4(O)CN5CCC4CC5)cc3)cc2)CC1`, the Vd [1] is reported as 6.6 L/kg, the bioavailability [2] is reported as 47% and the fraction unbound [3] is reported as 0.41. It also gave an IC50 (Collagenase 3) of 0.074 µM, a clearance [4] of 0.216 L/h/kg and a microsomal CLint [5] of 2.6 µL/min/mg. It also gave a dose excreted [6] of under 1%, a hepatocyte CLint [7] of under 2 µL/min/1e6 cells and a hepatocyte CLint [8] of under 2 µL/min/1e6 cells. It also gave an IC50 [9] of 7.3 µM, an IC50 ([10]; read-out: IC50) of over 8 µM and an IC50 ([10]; read-out: pIC50 (converted)) of 7.94 µM. It also gave an INH [11] of over 10 µM, a Papp B→A at 10 µM [12] of 74 nm/s and a solubility thermodynamic [13] of over 2000 µM. The EC50 [14] was 8 µM, the fraction unbound [15] was 0.73 and the INH [16] was over 10 µM. For the same compound, the pIC50 [17] was under 5, the IC50 ([17]; read-out: IC50) was over 10 µM and the bioavailability [18] was 2%. It also gave a half-life [19] of 10.1 h, a pIC50 [20] of under 5 and an IC50 ([20]; read-out: IC50) of over 10 µM. For the same compound, the clearance [21] was 0.96 L/h/kg.
